Measurements taken from patent US7074789B2, “Kinase inhibitors” (Amgen Inc., priority 1999, dated 2006).

Key:
Format in all cases: biochemical
Lck = target: T1, Lck (Homo sapiens, UniProt P06239); test: Kinase inhibition assay (33P transfer), Lck; settings: read-out: Lck-1
T1 construct: Kinases are expressed as either kinase domains or full length constructs; made in house
How it was run: (§1)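 Measured by scintillation: radiolabelled phosphate added by tagged recombinant kinases to poly(Glu,Tyr) 4:1 or poly(Arg,Ser) 3:1 attached to microtiter wells, counted once free label was washed away with 0.5% phosphoric acid.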

PDGFRB = target: T2, PDGFRB (Homo sapiens, UniProt P09619); test: Kinase inhibition assay (33P transfer), PDGFRB; settings: read-out: PDGFRB-1
T2 construct: Kinases are expressed as either kinase domains or full length constructs; made in house

Zap-70 = target: T3, Zap-70 (Homo sapiens, UniProt P43403); test: Kinase inhibition assay (33P transfer), Zap-70; settings: read-out: Zap-1
T3 construct: Kinases are expressed as either kinase domains or full length constructs; made in house
T3 sequence (P43403 1-619): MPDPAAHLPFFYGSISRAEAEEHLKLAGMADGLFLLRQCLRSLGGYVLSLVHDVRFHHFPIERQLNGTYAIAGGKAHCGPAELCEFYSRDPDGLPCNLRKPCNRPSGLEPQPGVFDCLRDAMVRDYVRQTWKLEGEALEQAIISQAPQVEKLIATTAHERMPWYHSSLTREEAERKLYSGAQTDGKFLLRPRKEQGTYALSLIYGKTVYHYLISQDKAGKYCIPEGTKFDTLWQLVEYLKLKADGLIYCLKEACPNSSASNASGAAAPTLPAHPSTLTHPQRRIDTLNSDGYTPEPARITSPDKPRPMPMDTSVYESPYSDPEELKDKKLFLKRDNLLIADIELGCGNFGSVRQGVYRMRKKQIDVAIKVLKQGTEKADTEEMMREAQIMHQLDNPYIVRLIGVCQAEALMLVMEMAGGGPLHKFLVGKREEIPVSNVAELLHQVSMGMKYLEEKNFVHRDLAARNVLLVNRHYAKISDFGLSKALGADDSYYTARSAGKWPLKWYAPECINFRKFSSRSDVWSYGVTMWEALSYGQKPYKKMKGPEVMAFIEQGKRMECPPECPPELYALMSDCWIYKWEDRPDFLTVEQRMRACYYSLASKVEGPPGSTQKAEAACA
How it was run: as §1

EGFR = target: T4, EGFR (Homo sapiens, UniProt P00533); test: Kinase inhibition assay (33P transfer), EGFR; settings: Table 2, kinase inhibition class; read-out: EGFR-1
T4 construct: Kinases are expressed as either kinase domains or full length constructs; made in house
How it was run: (§2)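 IC50: inhibitor concentration lowering 33P incorporation into immobilised substrate by 50%. Label transferred from ATP to poly(Glu,Tyr) 4:1 or poly(Arg,Ser) 3:1 is measured after a 0.5% phosphoric acid wash by liquid scintillation.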

c-Met = target: T5, c-Met (Homo sapiens, UniProt P08581); test: Kinase inhibition assay (33P transfer), c-Met; settings: Table 2, kinase inhibition class; read-out: Met-1
T5 construct: Kinases are expressed as either kinase domains or full length constructs; made in house
T5 sequence (P08581 25-1390): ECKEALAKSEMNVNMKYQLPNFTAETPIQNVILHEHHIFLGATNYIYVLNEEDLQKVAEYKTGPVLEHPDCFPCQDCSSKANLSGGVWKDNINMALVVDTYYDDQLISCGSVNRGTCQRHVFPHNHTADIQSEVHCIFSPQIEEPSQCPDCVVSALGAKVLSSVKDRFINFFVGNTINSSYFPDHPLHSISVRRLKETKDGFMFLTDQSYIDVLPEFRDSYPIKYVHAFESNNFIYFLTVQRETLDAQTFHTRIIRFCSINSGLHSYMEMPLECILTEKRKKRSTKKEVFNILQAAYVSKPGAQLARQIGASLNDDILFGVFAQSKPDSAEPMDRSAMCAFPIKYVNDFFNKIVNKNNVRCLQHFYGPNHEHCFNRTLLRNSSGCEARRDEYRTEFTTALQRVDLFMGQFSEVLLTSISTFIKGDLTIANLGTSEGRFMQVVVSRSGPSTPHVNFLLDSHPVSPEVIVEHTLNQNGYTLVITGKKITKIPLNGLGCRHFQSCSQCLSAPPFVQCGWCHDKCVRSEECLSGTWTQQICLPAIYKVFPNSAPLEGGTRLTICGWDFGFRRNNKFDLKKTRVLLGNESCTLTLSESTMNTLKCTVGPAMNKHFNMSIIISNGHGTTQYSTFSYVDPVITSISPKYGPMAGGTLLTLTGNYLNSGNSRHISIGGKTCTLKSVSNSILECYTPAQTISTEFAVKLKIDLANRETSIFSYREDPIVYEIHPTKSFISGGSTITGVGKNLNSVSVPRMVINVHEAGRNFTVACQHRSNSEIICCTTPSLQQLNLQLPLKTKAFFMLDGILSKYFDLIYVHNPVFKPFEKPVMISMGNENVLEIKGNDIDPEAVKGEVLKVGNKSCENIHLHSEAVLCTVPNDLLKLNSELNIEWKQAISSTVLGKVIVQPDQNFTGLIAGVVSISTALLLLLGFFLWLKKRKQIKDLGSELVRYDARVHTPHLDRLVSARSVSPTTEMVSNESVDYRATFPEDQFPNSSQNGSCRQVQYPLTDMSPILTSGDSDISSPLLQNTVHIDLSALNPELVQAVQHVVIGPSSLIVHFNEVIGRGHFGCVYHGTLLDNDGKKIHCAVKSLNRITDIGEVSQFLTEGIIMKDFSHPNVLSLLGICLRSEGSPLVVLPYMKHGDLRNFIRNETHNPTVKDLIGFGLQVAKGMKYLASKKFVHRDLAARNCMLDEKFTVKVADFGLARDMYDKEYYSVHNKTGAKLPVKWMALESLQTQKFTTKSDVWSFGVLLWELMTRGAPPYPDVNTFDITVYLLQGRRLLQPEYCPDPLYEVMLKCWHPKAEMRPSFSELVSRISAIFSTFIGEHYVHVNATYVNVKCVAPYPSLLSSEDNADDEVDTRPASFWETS
How it was run: as §2

Itk = target: T6, Itk (Homo sapiens, UniProt Q08881); test: Kinase inhibition assay (33P transfer), Itk; settings: read-out: Itk-1
T6 construct: Kinases are expressed as either kinase domains or full length constructs; made in house
T6 sequence (Q08881 1-620): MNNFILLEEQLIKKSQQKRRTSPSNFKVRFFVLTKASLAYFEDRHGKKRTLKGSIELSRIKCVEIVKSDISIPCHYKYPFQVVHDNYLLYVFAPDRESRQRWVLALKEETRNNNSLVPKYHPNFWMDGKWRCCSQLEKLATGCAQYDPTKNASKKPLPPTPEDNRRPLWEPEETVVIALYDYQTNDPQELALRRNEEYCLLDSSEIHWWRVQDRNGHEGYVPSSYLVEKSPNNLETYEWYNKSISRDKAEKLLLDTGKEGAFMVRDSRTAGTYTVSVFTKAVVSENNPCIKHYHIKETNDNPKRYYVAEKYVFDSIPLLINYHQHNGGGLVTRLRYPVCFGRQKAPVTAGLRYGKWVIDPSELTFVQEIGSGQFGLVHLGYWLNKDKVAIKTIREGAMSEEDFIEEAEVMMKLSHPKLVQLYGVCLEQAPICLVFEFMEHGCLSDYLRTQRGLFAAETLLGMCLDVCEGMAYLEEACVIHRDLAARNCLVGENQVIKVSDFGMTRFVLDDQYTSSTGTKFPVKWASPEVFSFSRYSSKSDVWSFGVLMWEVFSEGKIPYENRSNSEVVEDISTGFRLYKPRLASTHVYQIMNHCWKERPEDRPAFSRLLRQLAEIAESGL
How it was run: as §2

AKT = target: T7, AKT (Homo sapiens, UniProt Q9Y243); test: Kinase inhibition assay (33P transfer), AKT; settings: Table 2, kinase inhibition class; read-out: AKT3-1
T7 construct: Kinases are expressed as either kinase domains or full length constructs; made in house
T7 sequence (Q9Y243 whole entry, the tested form may be a part): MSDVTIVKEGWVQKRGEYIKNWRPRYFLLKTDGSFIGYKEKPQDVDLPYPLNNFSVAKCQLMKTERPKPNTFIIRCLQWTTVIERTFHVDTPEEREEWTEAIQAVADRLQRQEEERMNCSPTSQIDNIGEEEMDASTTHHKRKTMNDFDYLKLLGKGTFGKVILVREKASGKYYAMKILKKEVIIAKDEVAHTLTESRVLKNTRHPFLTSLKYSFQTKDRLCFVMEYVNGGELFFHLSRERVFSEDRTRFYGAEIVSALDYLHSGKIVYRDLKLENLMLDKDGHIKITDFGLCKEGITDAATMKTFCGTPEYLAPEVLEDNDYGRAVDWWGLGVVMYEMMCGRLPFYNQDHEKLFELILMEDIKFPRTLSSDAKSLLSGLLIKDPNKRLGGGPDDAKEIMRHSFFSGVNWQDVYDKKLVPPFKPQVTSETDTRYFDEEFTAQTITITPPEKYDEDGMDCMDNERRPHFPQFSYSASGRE
How it was run: as §1

Kdr = target: T8, Kdr (Homo sapiens, UniProt P35968); test: Kinase inhibition assay (33P transfer), Kdr; settings: read-out: KDR-1
T8 construct: Kinases are expressed as either kinase domains or full length constructs; made in house
T8 sequence (P35968 20-1356, species assumed): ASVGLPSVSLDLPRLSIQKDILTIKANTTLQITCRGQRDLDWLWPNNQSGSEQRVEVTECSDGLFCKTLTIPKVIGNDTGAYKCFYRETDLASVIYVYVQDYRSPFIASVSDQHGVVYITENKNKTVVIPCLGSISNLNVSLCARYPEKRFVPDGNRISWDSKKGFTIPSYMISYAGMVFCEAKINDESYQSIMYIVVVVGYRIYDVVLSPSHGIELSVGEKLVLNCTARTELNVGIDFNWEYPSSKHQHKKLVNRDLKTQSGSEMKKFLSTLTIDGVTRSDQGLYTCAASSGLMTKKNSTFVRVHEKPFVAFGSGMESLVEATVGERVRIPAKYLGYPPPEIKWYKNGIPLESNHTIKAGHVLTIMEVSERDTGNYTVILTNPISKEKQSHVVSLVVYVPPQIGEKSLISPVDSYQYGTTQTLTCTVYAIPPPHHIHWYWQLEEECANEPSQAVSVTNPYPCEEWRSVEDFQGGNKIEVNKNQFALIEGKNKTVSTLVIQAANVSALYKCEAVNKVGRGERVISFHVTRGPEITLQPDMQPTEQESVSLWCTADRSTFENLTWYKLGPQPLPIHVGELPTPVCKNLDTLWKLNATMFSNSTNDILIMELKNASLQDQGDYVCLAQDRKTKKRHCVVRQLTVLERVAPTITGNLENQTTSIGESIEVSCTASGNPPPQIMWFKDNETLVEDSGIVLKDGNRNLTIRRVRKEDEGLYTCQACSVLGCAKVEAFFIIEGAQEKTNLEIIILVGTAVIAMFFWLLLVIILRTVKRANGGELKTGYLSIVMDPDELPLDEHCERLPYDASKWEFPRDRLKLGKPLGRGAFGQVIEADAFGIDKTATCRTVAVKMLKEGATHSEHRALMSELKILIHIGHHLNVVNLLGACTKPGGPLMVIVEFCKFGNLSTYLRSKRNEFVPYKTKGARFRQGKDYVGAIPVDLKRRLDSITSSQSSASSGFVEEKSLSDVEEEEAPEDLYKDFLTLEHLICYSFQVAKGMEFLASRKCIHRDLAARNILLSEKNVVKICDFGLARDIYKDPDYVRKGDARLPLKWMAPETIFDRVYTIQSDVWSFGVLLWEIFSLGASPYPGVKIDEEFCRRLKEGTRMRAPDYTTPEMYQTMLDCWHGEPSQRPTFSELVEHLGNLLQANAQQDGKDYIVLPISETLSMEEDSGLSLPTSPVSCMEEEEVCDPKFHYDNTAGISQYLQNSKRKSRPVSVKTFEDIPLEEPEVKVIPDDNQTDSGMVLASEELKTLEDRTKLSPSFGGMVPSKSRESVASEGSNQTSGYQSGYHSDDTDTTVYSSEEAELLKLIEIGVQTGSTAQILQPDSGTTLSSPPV
How it was run: as §1

ErbB2 = target: T9, ErbB2 (Homo sapiens, UniProt P04626); test: Kinase inhibition assay (33P transfer), ErbB2; settings: read-out: ErbB2-2
T9 construct: Kinases are expressed as either kinase domains or full length constructs; made in house
How it was run: as §2

IGFR-1 = target: T10, IGFR-1 (Homo sapiens, UniProt P08069); test: Kinase inhibition assay, IGFR-1 (Table 2); settings: Table 2, kinase inhibition class
T10 construct: Kinases are expressed as either kinase domains or full length constructs; made in house
T10 sequence (P08069 31-1367): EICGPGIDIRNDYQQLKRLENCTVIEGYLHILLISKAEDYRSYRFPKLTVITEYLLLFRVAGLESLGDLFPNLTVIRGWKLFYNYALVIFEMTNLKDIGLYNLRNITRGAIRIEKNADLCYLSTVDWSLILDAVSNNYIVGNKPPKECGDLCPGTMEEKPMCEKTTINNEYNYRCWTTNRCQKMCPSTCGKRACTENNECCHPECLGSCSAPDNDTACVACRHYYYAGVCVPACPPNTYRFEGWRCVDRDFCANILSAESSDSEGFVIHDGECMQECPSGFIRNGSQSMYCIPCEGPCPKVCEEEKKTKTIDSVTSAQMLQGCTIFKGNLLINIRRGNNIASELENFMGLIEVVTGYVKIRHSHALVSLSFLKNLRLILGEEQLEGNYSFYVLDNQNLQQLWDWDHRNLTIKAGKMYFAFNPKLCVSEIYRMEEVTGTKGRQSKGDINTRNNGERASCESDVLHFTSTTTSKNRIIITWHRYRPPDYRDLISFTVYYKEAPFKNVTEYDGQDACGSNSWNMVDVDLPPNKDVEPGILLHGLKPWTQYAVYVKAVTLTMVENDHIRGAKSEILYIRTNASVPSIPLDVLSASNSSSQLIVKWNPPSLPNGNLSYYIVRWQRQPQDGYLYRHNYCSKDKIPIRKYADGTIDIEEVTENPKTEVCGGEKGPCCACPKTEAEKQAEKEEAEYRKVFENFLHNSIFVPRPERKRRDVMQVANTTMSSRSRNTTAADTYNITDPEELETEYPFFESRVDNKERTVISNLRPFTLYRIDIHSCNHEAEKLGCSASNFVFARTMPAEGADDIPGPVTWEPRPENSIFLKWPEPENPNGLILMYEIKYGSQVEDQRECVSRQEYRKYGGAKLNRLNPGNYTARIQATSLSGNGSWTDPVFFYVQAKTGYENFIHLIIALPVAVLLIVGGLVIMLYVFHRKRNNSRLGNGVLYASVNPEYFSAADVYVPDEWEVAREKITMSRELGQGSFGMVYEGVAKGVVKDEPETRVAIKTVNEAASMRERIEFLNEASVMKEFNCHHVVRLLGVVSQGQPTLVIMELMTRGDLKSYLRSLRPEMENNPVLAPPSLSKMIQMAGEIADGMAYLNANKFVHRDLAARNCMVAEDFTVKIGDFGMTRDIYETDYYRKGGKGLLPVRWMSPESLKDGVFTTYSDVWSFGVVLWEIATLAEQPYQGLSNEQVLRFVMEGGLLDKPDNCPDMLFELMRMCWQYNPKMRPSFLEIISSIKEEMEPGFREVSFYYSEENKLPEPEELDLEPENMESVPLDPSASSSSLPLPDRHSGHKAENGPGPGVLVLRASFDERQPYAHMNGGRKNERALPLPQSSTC

T1 sequence (P06239 whole entry, species assumed, the tested form may be a part): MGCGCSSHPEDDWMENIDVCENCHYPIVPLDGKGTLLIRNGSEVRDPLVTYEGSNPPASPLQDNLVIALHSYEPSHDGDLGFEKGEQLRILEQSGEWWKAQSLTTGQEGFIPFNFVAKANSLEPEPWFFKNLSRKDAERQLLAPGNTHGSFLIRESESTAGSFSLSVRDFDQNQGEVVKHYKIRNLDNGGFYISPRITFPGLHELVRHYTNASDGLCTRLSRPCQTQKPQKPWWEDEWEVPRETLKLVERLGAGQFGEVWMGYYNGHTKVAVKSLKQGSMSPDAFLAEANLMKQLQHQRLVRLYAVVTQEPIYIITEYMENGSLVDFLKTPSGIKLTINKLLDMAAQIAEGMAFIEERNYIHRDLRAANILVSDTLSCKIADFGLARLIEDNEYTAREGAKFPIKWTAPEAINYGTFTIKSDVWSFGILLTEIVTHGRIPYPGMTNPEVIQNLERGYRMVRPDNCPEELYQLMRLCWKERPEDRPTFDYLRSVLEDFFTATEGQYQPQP

Structure (SMILES)	IC50 (Lck)	IC50 (PDGFRB)	IC50 (Zap-70)	IC50 (EGFR)	IC50 (c-Met)	IC50 (Itk)	IC50 (AKT)	IC50 (Kdr)	IC50 (ErbB2)	IC50 (IGFR-1)
Cc1cccc(Nc2ncnc(Nc3ccc4c(cnn4Cc4ccccc4)c3)n2)c1 [Compound 553]	> 11 µM	0.982 to 5.89 µM	5.89 to 8.59 µM	< 0.982 µM	0.982 to 5.89 µM	8.59 to 11 µM	5.89 to 8.59 µM	0.982 to 5.89 µM	0.982 to 5.89 µM	8.59 to 11 µM
C=CCNC(=O)c1ccc(-c2cc(Nc3ncnc(Nc4cc(OC)c(OC)c(OC)c4)n3)[nH]n2)cc1 [Compound 1005]	6.96 to 8.95 µM	> 8.95 µM	> 8.95 µM	> 8.95 µM	4.78 to 6.96 µM	> 8.95 µM	> 8.95 µM	> 8.95 µM	> 8.95 µM	0.796 to 4.78 µM
c1ccc(CCNc2ncnc(Nc3ccc4c(cnn4Cc4ccccc4)c3)n2)cc1 [Compound 734]	> 10.7 µM	> 10.7 µM	5.69 to 8.3 µM	> 10.7 µM	8.3 to 10.7 µM	> 10.7 µM	> 10.7 µM	0.949 to 5.69 µM	5.69 to 8.3 µM	5.69 to 8.3 µM
c1ccc(Cn2ncc3cc(Nc4ncnc(Nc5ccc(N6CCCCC6)cc5)n4)ccc32)cc1 [Compound 735]	> 9.44 µM	> 9.44 µM	5.04 to 7.34 µM	< 0.839 µM	7.34 to 9.44 µM	7.34 to 9.44 µM	5.04 to 7.34 µM	0.839 to 5.04 µM	0.839 to 5.04 µM	7.34 to 9.44 µM
Cc1ccc2c(c1)CCCN2c1ncnc(Nc2cccc(Cl)c2C)n1 [Compound 778]	> 12.3 µM	> 12.3 µM	> 12.3 µM	6.56 to 9.57 µM	1.09 to 6.56 µM	> 12.3 µM	1.09 to 6.56 µM	6.56 to 9.57 µM	6.56 to 9.57 µM	> 12.3 µM
COc1cc(Br)ccc1Nc1nc2ccccc2n1-c1ncnc(Nc2cc(OC)c(OC)c(OC)c2)n1 [Compound 1052]	> 7.78 µM	4.15 to 6.05 µM	> 7.78 µM	> 7.78 µM	> 7.78 µM	> 7.78 µM	> 7.78 µM	0.692 to 4.15 µM	4.15 to 6.05 µM	> 7.78 µM
CN(c1cccc(Cl)c1)c1ncnc(Nc2cccc(Br)c2)n1 [Compound 707]	> 11.5 µM	> 11.5 µM	> 11.5 µM	< 1.02 µM	> 11.5 µM	> 11.5 µM	> 11.5 µM	> 11.5 µM	> 11.5 µM	> 11.5 µM
CCN1CCCC1CNc1ncnc(Nc2ccc(OC)c(OC)c2)n1 (centres unmarked) [Compound 781]	> 12.6 µM	1.12 to 6.7 µM	> 12.6 µM	> 12.6 µM	> 12.6 µM	> 12.6 µM	> 12.6 µM	> 12.6 µM	> 12.6 µM	> 12.6 µM
CN(c1cccc(Cl)c1)c1ncnc(NC2CCN(Cc3ccccc3)CC2)n1 [Compound 752]	> 11 µM	> 11 µM	> 11 µM	0.978 to 5.87 µM	> 11 µM	> 11 µM	> 11 µM	> 11 µM	> 11 µM	> 11 µM
CC(=O)N1CCc2cc(Nc3ncnc(N4CCCc5cc(C)ccc54)n3)ccc21 [Compound 764]	> 11.2 µM	< 0.999 µM	> 11.2 µM	< 0.999 µM	< 0.999 µM	> 11.2 µM	> 11.2 µM	> 11.2 µM	> 11.2 µM	> 11.2 µM
Cc1ccc(Nc2ncnc(Nc3cccc(CC(=O)O)c3)n2)cc1O [Compound 543]	6.83 to 9.96 µM	1.14 to 6.83 µM	> 12.8 µM	< 1.14 µM	> 12.8 µM	> 12.8 µM	> 12.8 µM	< 1.14 µM	1.14 to 6.83 µM	> 12.8 µM
CN(c1cccc(Cl)c1)c1ncnc(NCCOCCO)n1 [Compound 746]	> 13.9 µM	> 13.9 µM	> 13.9 µM	> 13.9 µM	> 13.9 µM	> 13.9 µM	> 13.9 µM	> 13.9 µM	> 13.9 µM	> 13.9 µM
CN(c1cccc(Cl)c1)c1ncnc(-n2c(N)nc3ccccc32)n1 [Compound 664]	1.14 to 6.82 µM	9.95 to 12.8 µM	6.82 to 9.95 µM	1.14 to 6.82 µM	1.14 to 6.82 µM	6.82 to 9.95 µM	6.82 to 9.95 µM	1.14 to 6.82 µM	1.14 to 6.82 µM	1.14 to 6.82 µM
COc1ccc(Nc2ncnc(NCc3c(C)cccc3Cl)n2)cc1OC [Compound 791]	> 11.7 µM	> 11.7 µM	> 11.7 µM	> 11.7 µM	> 11.7 µM	> 11.7 µM	> 11.7 µM	> 11.7 µM	6.22 to 9.07 µM	> 11.7 µM

Next, values leading:

IC50 (Lck)	IC50 (PDGFRB)	IC50 (Zap-70)	IC50 (EGFR)	IC50 (c-Met)	IC50 (Itk)	IC50 (AKT)	IC50 (Kdr)	IC50 (ErbB2)	IC50 (IGFR-1)	Structure (SMILES)
< 0.945 µM	< 0.945 µM	> 10.6 µM	0.945 to 5.67 µM	< 0.945 µM	> 10.6 µM	> 10.6 µM	< 0.945 µM	0.945 to 5.67 µM	0.945 to 5.67 µM	COc1ccc2c(c1)CCCN2c1ncnc(Nc2cc(OC)c(OC)c(OC)c2)n1 [Compound 631]
0.836 to 5.02 µM	0.836 to 5.02 µM	5.02 to 7.31 µM	< 0.836 µM	0.836 to 5.02 µM	5.02 to 7.31 µM	7.31 to 9.4 µM	0.836 to 5.02 µM	0.836 to 5.02 µM	0.836 to 5.02 µM	c1ccc(Cn2ncc3cc(Nc4ncnc(Nc5ccc(N6CCOCC6)cc5)n4)ccc32)cc1 [Compound 729]
0.972 to 5.83 µM	0.972 to 5.83 µM	> 10.9 µM	< 0.972 µM	> 10.9 µM	> 10.9 µM	> 10.9 µM	5.83 to 8.51 µM	< 0.972 µM	> 10.9 µM	COc1cc(Nc2ncnc(Nc3cccc(CC(=O)O)c3)n2)cc(OC)c1OC [Compound 624]
0.927 to 5.56 µM	5.56 to 8.11 µM	> 10.4 µM	< 0.927 µM	0.927 to 5.56 µM	> 10.4 µM	> 10.4 µM	0.927 to 5.56 µM	< 0.927 µM	> 10.4 µM	COc1ccc(Nc2ncnc(N3CCCc4ccc(C(F)(F)F)cc43)n2)cc1OC [Compound 535]
1.07 to 6.43 µM	1.07 to 6.43 µM	> 12 µM	9.37 to 12 µM	1.07 to 6.43 µM	9.37 to 12 µM	> 12 µM	1.07 to 6.43 µM	> 12 µM	> 12 µM	CCCN(CC1CC1)c1ncnc(Nc2cc(OC)c(OC)c(OC)c2)n1 [Compound 626]
< 0.827 µM	0.827 to 4.96 µM	7.24 to 9.31 µM	< 0.827 µM	4.96 to 7.24 µM	7.24 to 9.31 µM	4.96 to 7.24 µM	0.827 to 4.96 µM	0.827 to 4.96 µM	< 0.827 µM	COc1cc(Nc2ncnc(Nc3ccc4nn(Cc5ccccc5)cc4c3)n2)cc(OC)c1OC [Compound 555]
